Values after ≈ are worked out from the molar mass of the structure shown. “Also recorded” adds a separate entry of the source. Read-outs that look alike come from different tables or passages of the source.
How the values were obtained:
M. mycetomatis [1] = assay: In vitro susceptibility, averages over M. mycetomatis isolates (average metabolic activity at 2 µM, mean MIC); type: cell-based; settings: Madurella mycetomatis, 96 h, 4 days at 37°C, CellTiter-Glo, average of 3 isolates, 20% or below = inhibition
Description: M. mycetomatis isolate MM55 was used to screen the Oncode library. This strain was kindly provided by Prof. […] The three M. mycetomatis isolates were identified by ITS sequencing and maintained at −80°C at Erasmus MC. Prior to in vitro screening, isolates were cultured on Sabouraud agar plates (BD, Erembodegem, Belgium) at 37°C.
The Oncode Drug Repurposing library was based on the drug repurposing library from the Drug Repurposing Hub of the Broad Institute and recreated by the Oncode institute.[13] […] Each well of the 384-well plates contained 0.6 µL of a 200 µM stock concentration of compound, resulting in a final concentration of 2 µM when the fungus was added. […] Furthermore, this concentration could also be reached in the G. mellonella larvae.[8],[11] The prepared 384-well plates were transferred on dry ice to the Erasmus MC and stored at −80°C until they were screened.
(§1) Each plate also contained a growth control (60 µL of M. mycetomatis hyphal suspension, plus 0.6 µL of DMSO) and a negative control (60 µL of culture medium, plus 0.6 µL of DMSO). Plates were then incubated for 4 days at 37°C, after which 30 µL of CellTiter-Glo 3D Cell Viability reagent was added to every well.[19] After 25 min of incubation at room temperature, the luminescence was measured with a CytoFluor Series 4000 luminometer (PerSeptive Biosystems, Framingham, MA, USA). To determine the metabolic activity, the following formula was used:
(§2) Percentagemetabolicactivity=(Absorbancetestluminensence−AbsorbanceNCluminensence/AbsorbanceGCluminensence−AbsorbanceNCluminensence)×100
(§3) where, GC is growth control and NC is negative control. The luminescence measured for the GC is considered as 100% metabolic activity. The luminescence for the NC is considered as 0% metabolic activity.

[2] = system: M. mycetomatis strain mm55; assay: IC50 and MIC determination, CellTiter-Glo, strain mm55; type: cell-based, Madurella mycetomatis; settings: Madurella mycetomatis; for IC50: concentration inhibiting 50% of fungal hyphae growth; for MIC: concentration with complete growth inhibition
M. mycetomatis strain P1 [3] = assay: IC50 and MIC determination, CellTiter-Glo, strain P1; type: cell-based, Madurella mycetomatis; settings: Madurella mycetomatis, P1
M. mycetomatis strain I1 [4] = assay: IC50 and MIC determination, CellTiter-Glo, strain I1; type: cell-based, Madurella mycetomatis; settings: Madurella mycetomatis, I1
M. mycetomatis [5] = assay: In vitro susceptibility, averages over M. mycetomatis isolates (average metabolic activity at 2 µM, mean MIC); type: cell-based, Madurella mycetomatis; settings: Madurella mycetomatis; mean/average over strains MM55, P1 and I1
M. mycetomatis [6] = system: M. mycetomatis; parameters: method as in PMID 35398930, PMID 15793113, PMID 36005544, PMID 34181477, PMID 22964246; settings: against M. mycetomatis; cited from earlier work
[7] = system: M. mycetomatis-infected G. mellonella larvae; settings: only at concentrations higher than used in human patients; cited from earlier work
[8] = system: M. mycetomatis isolate MM55; assay: Oncode library screen at 2 µM, CLSI-based in vitro susceptibility assay with CellTiter-Glo (metabolic activity); type: cell-based, Madurella mycetomatis; settings: primary screen, strain MM55, 20% or below = inhibition
Description: M. mycetomatis isolate MM55 was used to screen the Oncode library. This strain was kindly provided by Prof. A. Fahal of the Mycetoma Research Centre in 1999. The most promising hit compounds were also screened against M. mycetomatis isolates P1 and I1, which originated from Mali and India, respectively.[17] The three M. mycetomatis isolates were identified by ITS sequencing and maintained at −80°C at Erasmus MC. Prior to in vitro screening, isolates were cultured on Sabouraud agar plates (BD, Erembodegem, Belgium) at 37°C.
The Oncode Drug Repurposing library was based on the drug repurposing library from the Drug Repurposing Hub of the Broad Institute and recreated by the Oncode institute.[13] The library contained 5631 drugs.[18] A copy of this library was plated out on 384-well plates with lids (cat no. 655180; Greiner Bio-One, Alphen aan den Rijn, The Netherlands) by the Leiden University Medical Center. Each well of the 384-well plates contained 0.6 µL of a 200 µM stock concentration of compound, resulting in a final concentration of 2 µM when the fungus was added. From the previous libraries we screened, we noted that there are several compounds able to inhibit M. mycetomatis at this concentration in vitro. Furthermore, this concentration could also be reached in the G. mellonella larvae.[8],[11] The prepared 384-well plates were transferred on dry ice to the Erasmus MC and stored at −80°C until they were screened. We created a second library from the original library, containing only those 29 compounds that were active in the first screen.
as §1, with “. Each” for “Each”
as §2, §3

eumycetoma = settings: first 6 months of treatment, cited from earlier work
[9] = system: itraconazole-susceptible and itraconazole-resistant Aspergillus fumigatus; parameters: method as in PMID 37037064; settings: cited from earlier work
thioredoxin reductase = system: thioredoxin reductase; parameters: method as in PMID 39816643; settings: cited from earlier work
M. mycetomatis strain I1 [10] = assay: microbe, parasite or virus in culture; parameters: species or system Madurella mycetomatis hyphae; settings: Madurella mycetomatis, I1, 96 h
Description: (§4) The Oncode Drug Repurposing library was based on the drug repurposing library from the Drug Repurposing Hub of the Broad Institute and recreated by the Oncode institute.[13] The library contained 5631 drugs.[18] A copy of this library was plated out on 384-well plates with lids (cat no. 655180; Greiner Bio-One, Alphen aan den Rijn, The Netherlands) by the Leiden University Medical Center. Each well of the 384-well plates contained 0.6 µL of a 200 µM stock concentration of compound, resulting in a final concentration of 2 µM when the fungus was added. From the previous libraries we screened, we noted that there are several compounds able to inhibit M. mycetomatis at this concentration in vitro. Furthermore, this concentration could also be reached in the G. mellonella larvae.[8],[11] The prepared 384-well plates were transferred on dry ice to the Erasmus MC and stored at −80°C until they were screened. We created a second library from the original library, containing only those 29 compounds that were active in the first screen. […] To determine the in vitro susceptibility of M. mycetomatis to the compounds, a hyphal inoculum was prepared as described elsewhere.[19] This M. mycetomatis hyphal suspension (60 µL) was added to each of the wells in the 384-well plate, leading to a final testing concentration of 2 µM per compound. Each plate also contained a growth control (60 µL of M. mycetomatis hyphal suspension, plus 0.6 µL of DMSO) and a negative control (60 µL of culture medium, plus 0.6 µL of DMSO). Plates were then incubated for 4 days at 37°C, after which 30 µL of CellTiter-Glo 3D Cell Viability reagent was added to every well.[19] After 25 min of incubation at room temperature, the luminescence was measured with a CytoFluor Series 4000 luminometer (PerSeptive Biosystems, Framingham, MA, USA). To determine the metabolic activity, the following formula was used: For each of these 29 active compounds, the IC50 and MIC were determined for M. mycetomatis strains MM55, P1 and I1 (Table 1 and Table S1).

M. mycetomatis strain P1 [11] = assay: microbe, parasite or virus in culture; parameters: species or system Madurella mycetomatis hyphae; settings: Madurella mycetomatis, P1, 96 h
Description: as §4

[12] = system: M. mycetomatis strain mm55; assay: microbe, parasite or virus in culture; parameters: species or system Madurella mycetomatis hyphae; settings: Madurella mycetomatis, MM55, 96 h
Description: as §4

[13] = system: healthy uninfected G. mellonella larvae; settings: 20 µL of 20 µM injected
Description: (§5) For in vivo experiments, sixth-week instar G. mellonella larvae were purchased from Blue-Lagoon, Maassluis, The Netherlands. The larvae were raised and kept in the dark at room temperature. Larvae without any discoloration and weighing around 500 mg were selected for experiments.
To determine the toxicity, 15 healthy uninfected larvae were injected with 20 µL of 20 µM compound as previously described.[16] […] As a control, a separate group of larvae were injected with 20 µL of PBS. Larvae were housed in Petri dishes with Whatman paper at 37°C in the dark. Survival was monitored for 10 days.

[14] = system: M. mycetomatis MM55-infected G. mellonella larvae; assay: Therapeutic efficacy in M. mycetomatis-infected G. mellonella larvae (survival, log-rank); type: in vivo, Galleria mellonella; settings: 20 µL of 20 µM at 4, 28 and 52 h post infection; 10 days
Description: as §5
The wet weight was determined and 10 mL of PBS per gram of mycelia was added. The suspension was then sonicated for 2 min to achieve a particle size of 10 µm. The fungal suspension (4 mg/40 µL) was injected into the last left pro-leg of a healthy G. mellonella larva with an insulin 29G U-100 needle to reach a final inoculum of 4 mg/larva. Larvae were placed in Petri dishes containing Whatman paper in a 37°C incubator.
A control group was also included in which M. mycetomatis-infected larvae were treated with PBS or with 1 mg/kg amphotericin B (Fungizone, Bristol Myers Squibb, Utrecht, The Netherlands). […] The treatment was repeated at 28 h post infection and 52 h post infection via different prolegs. The infection was monitored for 10 days.
To compare the survival rates between PBS treatment control and the different experimental groups a log-rank test was performed. All data were processed and performed in GraphPad Prism 10.

## CC[C@@H]([C@H](C)O)n1ncn(-c2ccc(N3CCN(c4ccc(OC[C@@H]5CO[C@@](Cn6cncn6)(c6ccc(F)cc6F)C5)cc4)CC3)cc2)c1=O [Posaconazole]
M. mycetomatis [1]
  activity at 2 µM: 1.9%
[2]
  IC50: 0.13 µM
  MIC: 0.25 µM (≈ 0.175 µg/mL)
M. mycetomatis strain P1 [3]
  IC50: < 0.03 µM
  MIC: 0.03 µM (≈ 0.021 µg/mL)
M. mycetomatis strain I1 [4]
  IC50: < 0.03 µM
  MIC: 0.03 µM (≈ 0.021 µg/mL)
M. mycetomatis [5]
  MIC: < 0.03 µM
M. mycetomatis [6]
  MIC50: 0.03 µg/mL (≈ 0.0428 µM)
[7]
  larval survival: Prolonged survival

## Cc1ccc(-c2c(-c3nn(C)c4ncnc(N5CC[C@H](N6CCCCC6)C5)c34)cnn2C)cc1 [pf4981517]
[8]
  Madurella mycetomatis metabolic activity at 2µM (%): 79.1%

## CC(C)OC(=O)C1=CN(C(=O)c2ccc(F)c(F)c2)CC(C)(C)c2c1[nH]c1ccccc21 [turofexorate isopropyl xl335]
[8]
  Madurella mycetomatis metabolic activity at 2µM (%): 92.4%

## COC(=O)C1=C(C#N)NC(C)=C(C(=O)OC(C)C)C1c1cccc([N+](=O)[O-])c1 (stereo not drawn) [nilvadipine arc029]
[8]
  Madurella mycetomatis metabolic activity at 2µM (%): 85.2%

## C[C@@H](c1nc(-c2ccc(C#N)cc2)cs1)[C@@](Cn1cncn1)(OCOP(=O)(O)O)c1ccc(F)cc1F [fosravuconazole]
eumycetoma; 200 mg/week
  lesion size or β-glucan levels: no reduction
eumycetoma; 300 mg/week
  lesion size or β-glucan levels: no reduction

## CC(=O)OC[C@H]1O[C@@H]([S-])[C@H](OC(C)=O)[C@@H](OC(C)=O)[C@@H]1OC(C)=O.CCP(CC)CC.[Au+] [auranofin]
[9]
  Aspergillus biofilm formation: inhibitory activity
[9]; itraconazole-susceptible and itraconazole-resistant A. fumigatus
  antifungal activity: potent antifungal activity
Thioredoxin reductase
  thioredoxin reductase inhibition: able to inhibit thioredoxin reductase

## Cc1c(N)nc([C@H](CC(N)=O)NC[C@H](N)C(N)=O)nc1C(=O)N[C@H](C(=O)N[C@H](C)[C@@H](O)[C@H](C)C(=O)N[C@H](C(=O)NCCc1nc(-c2nc(C(=O)NCCCNCCCCN)cs2)cs1)[C@@H](C)O)[C@@H](O[C@@H]1O[C@@H](CO)[C@@H](O)[C@H](O)[C@@H]1O[C@@H]1O[C@H](CO)[C@@H](O)[C@H](OC(N)=O)[C@@H]1O)c1cnc[nH]1 [ONC0002990, bleomycetin]
M. mycetomatis strain I1 [10]
  IC50: 0.2 µM
  MIC: 0.5 µM (≈ 0.72 µg/mL)
M. mycetomatis strain P1 [11]
  IC50: < 0.03 µM
  MIC: < 0.03 µM
[12]
  IC50: 0.21 µM
  MIC: 0.5 µM (≈ 0.72 µg/mL)

## CC(C)(C)c1ccc(S(=O)(=O)/C=C/C#N)cc1 [bay117085]
M. mycetomatis [1]
  activity at 2 µM: 4%
[2]
  IC50: 1.51 µM
  MIC: 2 µM (≈ 0.499 µg/mL)
M. mycetomatis strain P1 [3]
  IC50: 0.85 µM
  MIC: 2 µM (≈ 0.499 µg/mL)
M. mycetomatis strain I1 [4]
  IC50: 0.72 µM
  MIC: 1 µM (≈ 0.249 µg/mL)
[13]; 10 day observation, toxic if more than 20% of larvae died
  Toxicity in G. mellonella larvae at 20 µM: not toxic
[13]; 10 days, uninfected larvae
  larval survival: above 80%
[14]
  Survival of M. mycetomatis-infected larvae versus PBS: prolonged the survival; also recorded: prolonged larval survival
Thioredoxin reductase
  thioredoxin reductase inhibition: able to inhibit thioredoxin reductase

## O=C(NC[C@H]1CN(c2ccc(N3CCOCC3=O)cc2)C(=O)O1)c1ccc(Cl)s1 [rivaroxaban xarelto]
[8]
  Madurella mycetomatis metabolic activity at 2µM (%): 98.3%
